Patent publication US10112933B2, “Methods and compositions for treatment of fibrosis” (Baylor College of Medicine, priority 2013, dated 2018)

These compounds were tested against recombinant Stat3 (binding to EGFR Y1068 phosphododecapeptide) (Homo sapiens, UniProt P40763) (assay: Stat3 SH2/pY-peptide SPR binding inhibition assay). Details: Stat3 500 nM, immobilized EGFR Y1068 phosphododecapeptide; read-out: SPR IC50 (competition with pY-peptide for binding to Stat3).
Text: Data shown are representative of 2 or more experiments. The equilibrium binding levels obtained in the absence or presence of compounds were normalized (response obtained in the presence of compound÷the response obtained in the absence of compound×100), plotted against the log concentration (nM) of the compounds (panel G). The experimental points fit to a competitive binding curve that uses a four-parameter logistic equation (see exemplary methods for details). These curves were used to calculate IC50 (Table 1).
Stat3 SH2/pY-peptide binding assay. Stat3 binding assays were performed at 25° C. with a BIAcore 3000 biosensor using 20 mM Tris buffer pH 8 containing 2 mM mercaptoethanol and 5% DMSO as the running buffer (Kim et al., 2005). Phosphorylated and control non-phosphorylated biotinylated EGFR derived dodecapeptides based on the sequence surrounding Y1068 (Shao et al., 2004) were immobilized on a streptavidin coated sensor chip (BIAcore inc., Picataway N.J.). The binding of Stat3 was conducted in 20 mM Tris buffer pH 8 containing 2 mM β-mercaptoethanol at a flow rate of 10 uL/min for 1-2 minute. Aliquots of Stat3 at 500 nM were premixed with compound to achieve a final concentration of 1-1,000 uM and incubated at 4° C. prior to being injected onto the sensor chip. The chip was regenerated by injecting 10 uL of 100 mM glycine at pH 1.5 after each sample injection. A control (Stat3 with DMSO but without compound) was run at the beginning and the end of each cycle (40 sample injections) to ensure that the integrity of the sensor chip was maintained throughout the cycle run. The average of the two controls was normalized to 100% and used to evaluate the effect of each compound on Stat3 binding. Responses were normalized by dividing the value at 2 min by the response obtained in the absence of compounds at 2 min and multiplying by 100. IC50 values were determined by plotting % maximum response as a function of log concentration of compound and fitting the experimental points to a competitive binding model using a four parameter logistic equation: R=Rhigh−(Rhigh−Rlow)/(1+conc/A1)^A2, where R=percent response at inhibitor concentration, Rhigh=percent response with no compound, Rlow=percent response at highest compound concentration, A2=fitting parameter (slope) and A1=IC50 (BIAevaluation Software version 4.1).
EXP IIA. Stat3/pY-peptide SPR binding inhibition assay. Stat3 pY-peptide binding assays is performed at 25° C. using a BIAcore 3000 biosensor as described (Xu et al., 2009). Briefly, phosphorylated and control nonphosphorylated biotinylated EGFR derived dodecapeptides based on the sequence surrounding Y1068 are immobilized on a streptavidin coated sensor chip (BIAcore Inc., Piscataway N.J.). […]

recombinant Stat3 (binding to EGFR Y1068 phosphododecapeptide), sequence (P40763 whole entry, species assumed): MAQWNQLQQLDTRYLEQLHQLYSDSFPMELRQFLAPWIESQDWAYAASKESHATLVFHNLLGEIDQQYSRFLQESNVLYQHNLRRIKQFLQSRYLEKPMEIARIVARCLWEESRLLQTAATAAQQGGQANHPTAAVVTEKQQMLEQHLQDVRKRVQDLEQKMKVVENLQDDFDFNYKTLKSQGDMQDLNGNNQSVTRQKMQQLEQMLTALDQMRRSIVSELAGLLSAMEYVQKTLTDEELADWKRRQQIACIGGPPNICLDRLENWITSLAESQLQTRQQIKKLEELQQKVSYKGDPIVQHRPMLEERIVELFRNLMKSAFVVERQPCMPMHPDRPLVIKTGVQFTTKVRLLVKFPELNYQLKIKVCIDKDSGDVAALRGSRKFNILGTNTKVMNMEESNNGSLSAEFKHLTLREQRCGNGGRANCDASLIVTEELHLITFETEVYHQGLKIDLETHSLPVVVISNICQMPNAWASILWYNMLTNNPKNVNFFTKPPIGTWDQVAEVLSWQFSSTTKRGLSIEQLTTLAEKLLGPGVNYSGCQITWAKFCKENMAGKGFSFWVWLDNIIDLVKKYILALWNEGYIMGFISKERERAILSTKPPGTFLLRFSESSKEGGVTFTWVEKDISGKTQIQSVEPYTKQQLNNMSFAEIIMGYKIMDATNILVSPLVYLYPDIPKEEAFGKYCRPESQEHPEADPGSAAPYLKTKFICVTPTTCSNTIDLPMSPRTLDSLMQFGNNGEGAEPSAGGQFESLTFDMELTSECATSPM

Compound	IC50 [µM]
O=C(O)c1ccc(C=CC(=O)c2ccc3c(c2)OCCO3)cc1 [Cpd3, 4-[3-(2,3-dihydro-1,4-benzodioxin-6-yl)-3-oxo-1-propen-1-yl]benzoic acid]	447
CCOc1cc(C=C2C(=O)c3ccccc3C2=O)cc(Cl)c1OCc1cccc(C(=O)O)c1 [Cpd3-2, 3-({2-chloro-4-[(1,3-dioxo-1,3-dihydro-2H-inden-2-ylidene)methyl]-6-ethoxyphenoxy}methyl)benzoic acid]	256
CCN1C(=O)C(=Cc2ccc(-c3cc(C(=O)O)ccc3Cl)o2)C(=O)N(CC)C1=S [Cpd30-12, 4-chloro-3-{5-[(1,3-diethyl-4,6-dioxo-2-thioxotetrahydro-5(2H)-pyrimidinylidene)methyl]-2-furyl}benzoic acid]	114
